In patent publication US20250186450A1, “COMBINATION THERAPY COMPRISING DGK INHIBITORS and PD-1/PD-L1 INHIBITORS” (Incyte Corporation, priority 2023, published 2025):
Entries after “also recorded” stand apart in the source; their conditions may differ.

Test system: MC38 syngeneic tumor model
Assay: MC38 syngeneic tumor model, DGK inhibitor plus anti-PD-1 (RMP1-14)
Type: in vivo, C57Bl/6 mice
Description: The in vivo effect of combining Compound 1 plus anti-PD-1 (RMP1-14, Bio X Cell) was assessed in the MC38 (CRL-1642, ATCC, Manassas, VA) syngeneic tumor model (see FIG. 3) in 6 to 8 weeks old C57Bl/6 mice (Jackson laboratories). Compound 1 was suspended in 5% N,N-dimethylacetamide (DMAC)+50 mM Citrate buffer in 0.5% methyl cellulose for oral administration and RMP1-14 was suspended in saline for intraperitoneal administration. Briefly, the left flank of the mice was shaved the day prior to subcutaneous inoculation with 2×10^6 MC38 cells suspended in PBS. On day 7, tumor dimensions were measured by Vernier calipers, and volume estimated by the formula Volume=[L (long dimension)×W^2 (short dimension)]/2. Mice were randomized into 6 groups of 10 mice of approximate mean volume (˜160 mm^3). Tumors were measured 3 times per week for the duration of the study. Starting day 7, mice were dosed with (i) vehicle; (ii) 250 μg/mouse of RMP1-14; (iii) 10 mg/kg of Compound 1; (iv) 1 mg/kg of Compound 1; (v) 10 mg/kg of Compound 1 and 250 μg/mouse of RMP1-14; or (vi) 1 mg/kg of Compound 1 and 250 μg/mouse of RMP1-14. Compound 1 was administered orally once daily (QD) for 12 days, while RMP1-14 was dosed every 5 days (for a total of 3 doses).
The in vivo effect of combining Compound 2 plus anti-PD-1 (RMP1-14, Bio X Cell) was assessed in the MC38 (CRL-1642, ATCC, Manassas, VA) syngeneic tumor model in 6 to 8 weeks old C57Bl/6 mice (Jackson laboratories). Compound 2 was suspended in 5% N,N-dimethylacetamide (DMAC)+50 mM Citrate buffer in 0.5% methyl cellulose for oral administration and RMP1-14 was suspended in saline for intraperitoneal administration. Briefly, the left flank of the mice was shaved the day prior to subcutaneous inoculation with 2×10^6 MC38 cells suspended in PBS. On day 7, tumor dimensions were measured by Vernier calipers, and volume estimated by the formula Volume=[L (long dimension)×W^2 (short dimension)]/2. Mice were randomized into 6 groups of 10 mice of approximate mean volume (˜130 mm^3). Tumors were measured 3 times per week for the duration of the study. Starting day 7, mice were dosed with (i) vehicle; (ii) 250 μg/mouse of RMP1-14 (Anti-PD-1); (iii) 0.5 mg/kg of Compound 2 QD; (iv) 0.5 mg/kg of Compound 2 […] and 250 μg/mouse of RMP1-14; (v) 0.5 mg/kg of Compound 2 Q2D; (vi) 0.5 mg/kg of Compound 2 […] and 250 μg/mouse of RMP1-14; (vii) 1.5 mg/kg of Compound 2 QD; (viii) 1.5 mg/kg of Compound 2 QD and 250 μg/mouse of RMP1-14 (ix) 1.5 mg/kg of Compound 2 Q2D; (x) 1.5 mg/kg of Compound 2 Q2D and 250 μg/mouse of RMP1-14; (xi) 1.5 mg/kg of Compound 2 Q3D; or (xii) 1.5 mg/kg of Compound 2 Q3D and 250 μg/mouse of RMP1-14.
The in vivo effect of combining 2-(4-((2S,5R)-4-(bis(4-fluorophenyl)methyl)-2,5-dimethylpiperazin-1-yl)-1H-[1,2,4]triazolo[3,4-b]purin-1-yl)-N,N-dimethylethane-1-amine (i.e., Compound 3) plus anti-PD-1 (RMP1-14, Bio X Cell) was assessed in the MC38 (CRL-1642, ATCC, Manassas, VA) syngeneic tumor model in 6 to 8 weeks old C57Bl/6 mice (Jackson laboratories). Compound 3 was suspended in 5% N,N-dimethylacetamide (DMAC)+50 mM Citrate buffer in 0.5% methyl cellulose for oral administration and RMP1-14 was suspended in saline for intraperitoneal administration. Briefly, the left flank of the mice was shaved the day prior to subcutaneous inoculation with 2×10^6 MC38 cells suspended in PBS. On day 7, tumor dimensions were measured by Vernier calipers, and volume estimated by the formula Volume=[L (long dimension)×W^2 (short dimension)]/2. Mice were randomized into 6 groups of 10 mice of approximate mean volume (˜200 mm^3). Tumors were measured 3 times per week for the duration of the study. Starting day 7, mice were dosed with (i) vehicle; (ii) 250 μg/mouse of RMP1-14 (Anti-PD-1); (iii) 10 mg/kg of Compound 3 QD; (iv) 10 mg/kg of Compound 3 QD and 250 μg/mouse of RMP1-14; (v) 30 mg/kg of Compound 3 QD; or (vi) 30 mg/kg of Compound 3 QD and 250 μg/mouse of RMP1-14.

| Compound | TGI, combined with anti-PD-1 mAb, vs anti-PD-1 mAb control group (1.5 mg/kg Compound 2 and 250 μg/mouse RMP1-14, FIG. 7) | TGI, combined with anti-PD-1 mAb, vs vehicle control group (0.5 and 1.5 mg/kg Compound 2, independent of dose schedule, and 250 μg/mouse RMP1-14, FIG. 7) | TGI, combination groups vs respective single-arm Compound 2 control group (0.5 or 1.5 mg/kg Compound 2 and 250 μg/mouse RMP1-14) | TGI vs vehicle and anti-PD-1 mAb control groups (Compound 2 alone, 0.5 or 1.5 mg/kg, FIG. 7) | combination effect on tumor growth delay (Bliss Independence analysis) (10 mg/kg or 1 mg/kg Compound 1 QD for 12 days with 250 μg RMP1-14, vs respective controls, FIG. 3) |
| --- | --- | --- | --- | --- | --- |
| Cc1nc2c(N3C[C@@H](C)N(C(c4ccc(C(F)(F)F)cc4)C4CC(F)(F)C4)C[C@@H]3C)nc3nncn3c2n1C[C@@H]1CCCO1 (single isomer, unassigned) [Example 2] | significant TGI | statistically significant; also recorded: significant TGI | statistically significant | None of the single treatment arm groups dosed with Compound 2 0.5 or 1.5 mg/kg provided statistically significant TGI | – |
| C[C@@H]1CN(c2nc3nncn3c3c2nnn3C[C@H]2CCCO2)[C@@H](C)CN1C(c1ccc(F)cc1)c1ccc(F)cc1 [Example 1, 4-((2S,5R)-4-(Bis(4-fluorophenyl)methyl)-2,5-dimethylpiperazin-1-yl)-1-(((R)-tetrahydrofuran-2-yl)methyl)-1H-[1,2,3]triazolo[4,5-e][1,2,4]triazolo[4,3-a]pyrimidine] | – | – | – | – | additive effect in tumor growth delay |
